Measured values taken from the supplement of paper PMC10307832.

How the values were obtained:
Assay in all cases: relative viability (nuclei count vs DMSO), 5 days (fraction); higher = more cells survive
[1] = compound: CC(C)C[C@H](NC(=O)[C@H](CCc1ccccc1)NC(=O)CN1CCOCC1)C(=O)N[C@@H](Cc1ccccc1)C(=O)N[C@@H](CC(C)C)C(=O)[C@@]1(C)CO1 [Carfilzomib] + O=C(CCCCCCC(=O)Nc1ccccc1)NO [Vorinostat] (partner 1 µM)
Procedure, shortened: (§1)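 Cells from lung cancer lines were seeded into 1536-well plates and, one day later, dosed by pin tool. Treatments were either a single drug or a fixed dose of an anchor drug with five library-drug doses (not always all listed) in √10 steps. After 5 days, nuclei were stained in a one-step fixation (final 0.05% Triton X-100, 1% formaldehyde, 1 ug/ml Hoechst) and counted on 4× images, and relative viability is the treated-to-vehicle nuclei ratio, as the median of duplicate plates.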

[2] = compound: O=C(c1cc(Cc2n[nH]c(=O)c3ccccc23)ccc1F)N1CCN(C(=O)C2CC2)CC1 [Olaparib] + CC(=O)Nc1cccc(-n2c(=O)n(C3CC3)c(=O)c3c(Nc4ccc(I)cc4F)n(C)c(=O)c(C)c32)c1 [Trametinib] (partner 0.02 µM)
Procedure, shortened: as §1

[3] = compound: CC(C)C[C@H](NC(=O)[C@H](CCc1ccccc1)NC(=O)CN1CCOCC1)C(=O)N[C@@H](Cc1ccccc1)C(=O)N[C@@H](CC(C)C)C(=O)[C@@]1(C)CO1 [Carfilzomib] + CC(C)C[C@H](NC(=O)[C@H](Cc1ccccc1)NC(=O)c1cnccn1)B(O)O [Bortezomib] (partner 0.002 µM)
Procedure, shortened: as §1

[4] = compound: O=C(c1cc(Cc2n[nH]c(=O)c3ccccc23)ccc1F)N1CCN(C(=O)C2CC2)CC1 [Olaparib] + Cc1cc(Nc2cc(N3CCN(C)CC3)nc(Sc3ccc(NC(=O)C4CC4)cc3)n2)n[nH]1 [Tozasertib] (partner 0.1 µM)
Procedure, shortened: as §1

Cell Line | relative viability ([1]; first compound 0.001 µM) | relative viability ([1]; first compound 0.003162 µM) | relative viability ([1]; first compound 0.01 µM) | relative viability ([1]; first compound 0.03162 µM) | relative viability ([1]; first compound 0.1 µM) | relative viability ([2]; first compound 0.08 µM) | relative viability ([2]; first compound 0.253 µM) | relative viability ([2]; first compound 2.53 µM) | relative viability ([2]; first compound 8 µM) | relative viability ([3]; first compound 0.001 µM) | relative viability ([3]; first compound 0.003162 µM) | relative viability ([3]; first compound 0.01 µM) | relative viability ([3]; first compound 0.03162 µM) | relative viability ([3]; first compound 0.1 µM) | relative viability ([4]; first compound 0.08 µM) | relative viability ([4]; first compound 0.253 µM) | relative viability ([4]; first compound 2.53 µM) | relative viability ([4]; first compound 8 µM)
NCI-H1651 | 0.602 | 0.597 | 0.447 | 0.188 | 0.104 | 0.849 | 0.75 | 0.642 | 0.504 | 0.895 | 0.836 | 0.647 | 0.292 | 0.134 | 0.677 | 0.638 | 0.439 | 0.257
NCI-H1666 | 0.972 | 0.933 | 1.15 | 1.03 | 0.599 | 0.872 | 0.95 | 0.791 | 0.765 | 0.987 | 0.888 | 0.771 | 0.188 | 0.218 | 0.619 | 0.733 | 0.583 | 0.515
NCI-H1734 | 0.75 | 0.932 | 0.592 | 0.119 | 0.109 | 0.688 | 0.583 | 0.718 | 0.565 | 0.848 | 1.1 | 0.484 | 0.147 | 0.146 | 0.25 | 0.249 | 0.251 | 0.251
NCI-H1755 | 0.806 | 0.793 | 0.664 | 0.464 | 0.383 | 0.728 | 0.738 | 0.784 | 0.725 | 0.929 | 1.02 | 0.685 | 0.282 | 0.221 | 0.611 | 0.547 | 0.548 | 0.531
NCI-H1915 | 0.499 | 0.537 | 0.452 | 0.517 | 0.0617 | 0.278 | 0.285 | 0.261 | 0.206 | 0.906 | 0.849 | 1.03 | 0.142 | 0.0581 | 0.447 | 0.372 | 0.368 | 0.274
NCI-H1975 | 0.706 | 0.611 | 0.261 | 0.129 | 0.135 | 0.329 | 0.349 | 0.395 | 0.307 | 0.255 | 0.266 | 0.137 | 0.122 | 0.13 | 0.821 | 0.715 | 0.85 | 0.699
NCI-H1993 | 0.631 | 0.804 | 0.876 | 0.366 | 0.288 | 0.559 | 0.57 | 0.517 | 0.384 | 0.912 | 1.18 | 1.1 | 0.453 | 0.425 | 0.546 | 0.537 | 0.557 | 0.521
NCI-H2009 | 0.717 | 0.821 | 0.757 | 0.179 | 0.0653 | 0.275 | 0.283 | 0.315 | 0.267 | 1.11 | 1.26 | 0.78 | 0.122 | 0.0487 | 0.81 | 0.678 | 0.761 | 0.648
NCI-H2023 | 0.471 | 0.657 | 0.619 | 0.224 | 0.0546 | 0.59 | 0.514 | 0.525 | 0.489 | 0.951 | 1.07 | 1.01 | 0.184 | 0.0639 | 0.357 | 0.298 | 0.32 | 0.238
NCI-H2085 | 0.71 | 0.879 | 0.497 | 0.222 | 0.3 | 0.619 | 0.528 | 0.504 | 0.523 | 1.03 | 0.923 | 0.773 | 0.451 | 0.313 | 0.943 | 0.756 | 0.847 | 0.753
NCI-H2087 | 0.474 | 0.601 | 0.225 | 0.0585 | 0.0243 | 0.219 | 0.208 | 0.215 | 0.188 | 0.803 | 0.793 | 0.202 | 0.0909 | 0.101 | 0.31 | 0.204 | 0.324 | 0.18
NCI-H2126 | 0.748 | 0.868 | 0.904 | 0.716 | 0.222 | 0.527 | 0.55 | 0.584 | 0.596 | 1.11 | 1.12 | 1.1 | 0.945 | 0.554 | 0.915 | 0.794 | 0.869 | 0.83
NCI-H2228 | 0.728 | 0.657 | 0.468 | 0.101 | 0.0952 | 0.609 | 0.344 | 0.495 | 0.521 | 0.94 | 0.54 | 0.257 | 0.0941 | 0.156 | 0.324 | 0.207 | 0.201 | 0.136
NCI-H2347 | 0.712 | 0.53 | 0.432 | 0.352 | 0.303 | 0.282 | 0.274 | 0.274 | 0.248 | 0.611 | 0.89 | 0.698 | 0.361 | 0.268 | 0.548 | 0.48 | 0.483 | 0.54
NCI-H2405 | 0.998 | 1.17 | 1.06 | 0.376 | 0.148 | 0.767 | 0.597 | 0.677 | 0.641 | 0.926 | 1.01 | 1.06 | 0.15 | 0.202 | 0.807 | 0.722 | 0.66 | 0.654
NCI-H3122 | 0.841 | 0.819 | 1.06 | 0.747 | 0.329 | 0.219 | 0.238 | 0.241 | 0.203 | 1.04 | 0.996 | 1.05 | 0.855 | 0.814 | 0.466 | 0.376 | 0.457 | 0.346
PC-3 [JPC-3] | 0.784 | 0.808 | 1.1 | 0.475 | 0.229 | 0.777 |  | 0.712 | 0.744 | 0.864 | 0.767 | 0.581 | 0.245 | 0.147 | 0.913 | 0.855 | 0.946 | 0.843
PC-14 | 0.71 | 0.754 | 0.228 | 0.0369 | 0.0418 | 0.937 | 0.646 | 0.434 | 0.456 | 0.888 | 0.963 | 0.494 | 0.0957 | 0.0938 | 0.602 | 0.557 | 0.536 | 0.419
